Active and inactive are the calls of the source. The rule behind the calls is not given here.

By IC50 is commonly meant the concentration that inhibits the measured activity by half. The term hepatocyte CLint denotes the rate of metabolic loss divided by the concentration. The low end stands for greater metabolic stability, the high end for faster metabolism. One may read the logD as the decadic logarithm of the distribution of all forms, ionised or not, between an organic phase and buffer at a given pH.
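For logD in this document: determined by the shake flask method.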

The target in the first series is T1, Serine-protein kinase ATM (Homo sapiens, UniProt Q13315). Briefly: Inhibition of ATM phosphorylation at Ser-1981 residue in human HT-29 cells incubated for 1 hr followed by X-ray irradiation by Hoechst staining based fluorescence plate reader analysis. In kind it is cell-based.
T1 sequence (Q13315 whole entry): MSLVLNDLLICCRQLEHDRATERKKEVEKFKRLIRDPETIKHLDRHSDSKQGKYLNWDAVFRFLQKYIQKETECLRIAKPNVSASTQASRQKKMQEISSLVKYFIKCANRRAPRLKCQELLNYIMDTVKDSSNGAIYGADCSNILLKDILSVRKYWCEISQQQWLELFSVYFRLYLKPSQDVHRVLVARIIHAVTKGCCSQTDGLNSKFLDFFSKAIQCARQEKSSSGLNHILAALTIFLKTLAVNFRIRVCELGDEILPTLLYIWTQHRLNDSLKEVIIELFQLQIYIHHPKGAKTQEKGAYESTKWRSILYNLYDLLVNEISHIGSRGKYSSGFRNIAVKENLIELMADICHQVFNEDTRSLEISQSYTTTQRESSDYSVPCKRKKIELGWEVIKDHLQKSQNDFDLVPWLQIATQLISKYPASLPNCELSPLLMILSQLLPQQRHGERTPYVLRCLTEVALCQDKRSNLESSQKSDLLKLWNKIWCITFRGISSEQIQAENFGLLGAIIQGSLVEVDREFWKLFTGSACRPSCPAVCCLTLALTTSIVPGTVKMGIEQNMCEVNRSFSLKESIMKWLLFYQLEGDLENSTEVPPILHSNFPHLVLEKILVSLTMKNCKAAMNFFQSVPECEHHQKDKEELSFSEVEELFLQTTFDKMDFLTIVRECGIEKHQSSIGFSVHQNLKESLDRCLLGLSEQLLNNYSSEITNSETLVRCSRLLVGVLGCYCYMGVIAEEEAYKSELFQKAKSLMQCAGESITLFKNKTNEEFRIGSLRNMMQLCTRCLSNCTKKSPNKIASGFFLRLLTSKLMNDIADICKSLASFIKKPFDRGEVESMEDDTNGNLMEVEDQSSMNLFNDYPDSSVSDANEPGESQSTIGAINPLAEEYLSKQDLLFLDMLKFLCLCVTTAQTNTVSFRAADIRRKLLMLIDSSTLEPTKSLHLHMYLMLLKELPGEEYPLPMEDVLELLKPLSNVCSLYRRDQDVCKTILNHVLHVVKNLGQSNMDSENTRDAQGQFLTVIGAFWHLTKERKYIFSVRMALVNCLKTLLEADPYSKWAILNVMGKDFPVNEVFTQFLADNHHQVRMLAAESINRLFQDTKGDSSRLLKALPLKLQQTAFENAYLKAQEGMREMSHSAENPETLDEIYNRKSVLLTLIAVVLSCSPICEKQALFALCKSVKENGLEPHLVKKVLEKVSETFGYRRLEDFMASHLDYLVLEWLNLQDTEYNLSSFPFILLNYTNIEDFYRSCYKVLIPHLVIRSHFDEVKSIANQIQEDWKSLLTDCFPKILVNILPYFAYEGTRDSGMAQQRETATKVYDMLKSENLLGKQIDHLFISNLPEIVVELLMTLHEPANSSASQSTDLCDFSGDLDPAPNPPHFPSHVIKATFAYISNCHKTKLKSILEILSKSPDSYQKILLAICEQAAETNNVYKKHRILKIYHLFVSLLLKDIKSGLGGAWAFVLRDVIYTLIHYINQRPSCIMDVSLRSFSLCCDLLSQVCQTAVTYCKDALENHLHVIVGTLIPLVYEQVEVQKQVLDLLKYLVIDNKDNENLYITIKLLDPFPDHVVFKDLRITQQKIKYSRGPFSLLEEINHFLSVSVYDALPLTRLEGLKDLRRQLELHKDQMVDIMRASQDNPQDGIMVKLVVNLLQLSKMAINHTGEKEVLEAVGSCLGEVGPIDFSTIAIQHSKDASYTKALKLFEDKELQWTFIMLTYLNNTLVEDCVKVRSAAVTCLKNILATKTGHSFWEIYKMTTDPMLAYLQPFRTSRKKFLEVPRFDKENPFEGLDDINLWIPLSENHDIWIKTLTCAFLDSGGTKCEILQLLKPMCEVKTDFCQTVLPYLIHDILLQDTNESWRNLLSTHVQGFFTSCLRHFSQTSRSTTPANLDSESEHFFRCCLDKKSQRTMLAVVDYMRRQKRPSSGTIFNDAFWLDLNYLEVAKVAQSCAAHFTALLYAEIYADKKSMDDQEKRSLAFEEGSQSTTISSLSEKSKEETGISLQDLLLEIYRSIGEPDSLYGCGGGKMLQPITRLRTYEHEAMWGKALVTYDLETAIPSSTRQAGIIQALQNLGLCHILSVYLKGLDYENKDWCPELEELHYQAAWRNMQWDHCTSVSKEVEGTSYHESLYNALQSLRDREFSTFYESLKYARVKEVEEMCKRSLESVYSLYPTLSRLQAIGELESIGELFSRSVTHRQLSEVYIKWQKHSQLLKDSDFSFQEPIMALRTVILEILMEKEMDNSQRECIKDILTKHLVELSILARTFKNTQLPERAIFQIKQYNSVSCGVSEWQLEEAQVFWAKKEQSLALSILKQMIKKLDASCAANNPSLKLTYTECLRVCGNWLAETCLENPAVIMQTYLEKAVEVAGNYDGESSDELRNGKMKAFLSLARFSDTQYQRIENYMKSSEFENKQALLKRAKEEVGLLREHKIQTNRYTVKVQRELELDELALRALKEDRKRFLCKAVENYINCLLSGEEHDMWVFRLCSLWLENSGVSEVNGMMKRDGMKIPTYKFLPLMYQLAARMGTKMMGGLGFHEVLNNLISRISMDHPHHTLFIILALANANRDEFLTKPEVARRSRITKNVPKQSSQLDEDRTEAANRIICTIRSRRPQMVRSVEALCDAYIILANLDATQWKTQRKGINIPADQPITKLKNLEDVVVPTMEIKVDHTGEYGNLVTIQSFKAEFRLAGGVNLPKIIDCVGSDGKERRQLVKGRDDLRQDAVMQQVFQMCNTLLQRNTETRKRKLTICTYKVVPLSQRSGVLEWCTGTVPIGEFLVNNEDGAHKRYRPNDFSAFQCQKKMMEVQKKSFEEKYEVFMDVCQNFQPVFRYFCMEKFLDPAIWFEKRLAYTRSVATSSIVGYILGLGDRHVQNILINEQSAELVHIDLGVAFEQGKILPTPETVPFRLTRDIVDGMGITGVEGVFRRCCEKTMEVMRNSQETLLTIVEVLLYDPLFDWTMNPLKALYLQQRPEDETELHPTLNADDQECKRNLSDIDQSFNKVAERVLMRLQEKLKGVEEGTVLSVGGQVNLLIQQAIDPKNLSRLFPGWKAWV
Details: not given
In turn, `CCC(CC)COc1c(C(N)=O)cnc2ccc(-c3cccnc3)cc12` came in with an IC50 of over 30 µM.
With `C[C@H](Nc1c(C(N)=O)cnc2ccc(-c3cccnc3)cc12)c1ccn(C)n1`, half-maximal inhibition (IC50) required 0.124 µM.
Turning to `NC(=O)c1cnc2ccc(-c3cccnc3)c(F)c2c1NC1CCOCC1`, the IC50 is over 30 µM.
On the same count and under the same terms, next, `CCC(CC)CNc1c(C(N)=O)cnc2ccc(-c3ccc(CS(C)(=O)=O)cc3)cc12`: 0.07 µM.

The next series concerns the target Serine/threonine-protein kinase ATR (Homo sapiens, UniProt Q13535). The series is described as follows: Inhibition of ATR in human HT-29 cells assessed as reduction in Chk1 phosphorylation at Ser-345 residue after 60 mins in presence of 4-nitroquinoline-1-oxide by Hoechst 33258 staining based plate reader analysis.
Details: not given
In kind it is cell-based.
As to `CCC(CC)COc1c(C(N)=O)cnc2ccc(-c3cccnc3)cc12`, the IC50 is over 30 µM.
In the case of `C[C@H](Nc1c(C(N)=O)cnc2ccc(-c3cccnc3)cc12)c1ccn(C)n1`, the IC50 was 0.64 µM.
Still for that read-out and setting: the same measure for `NC(=O)c1cnc2ccc(-c3cccnc3)c(F)c2c1NC1CCOCC1`: over 30 µM; for `CCC(CC)CNc1c(C(N)=O)cnc2ccc(-c3ccc(CS(C)(=O)=O)cc3)cc12`: over 30 µM.

The next series addresses T1, Serine-protein kinase ATM. Briefly: Inhibition of ATM in human HT-29 cells assessed as reduction in ATM phosphorylation at Ser-1981 residue up to 30 uM incubated for 1 hr followed by X-ray irradiation by Hoeschst staining based plate reader analysis. In kind it is cell-based.
Details: not given
On to `CCC(CC)COc1c(C(N)=O)cnc2ccc(-c3cccnc3)cc12`, for which the inhibition entry is “inactive”.

The target in another series is Voltage-gated inwardly rectifying potassium channel KCNH2 (Homo sapiens, UniProt Q12809).
Voltage-gated inwardly rectifying potassium channel KCNH2, sequence (Q12809 whole entry): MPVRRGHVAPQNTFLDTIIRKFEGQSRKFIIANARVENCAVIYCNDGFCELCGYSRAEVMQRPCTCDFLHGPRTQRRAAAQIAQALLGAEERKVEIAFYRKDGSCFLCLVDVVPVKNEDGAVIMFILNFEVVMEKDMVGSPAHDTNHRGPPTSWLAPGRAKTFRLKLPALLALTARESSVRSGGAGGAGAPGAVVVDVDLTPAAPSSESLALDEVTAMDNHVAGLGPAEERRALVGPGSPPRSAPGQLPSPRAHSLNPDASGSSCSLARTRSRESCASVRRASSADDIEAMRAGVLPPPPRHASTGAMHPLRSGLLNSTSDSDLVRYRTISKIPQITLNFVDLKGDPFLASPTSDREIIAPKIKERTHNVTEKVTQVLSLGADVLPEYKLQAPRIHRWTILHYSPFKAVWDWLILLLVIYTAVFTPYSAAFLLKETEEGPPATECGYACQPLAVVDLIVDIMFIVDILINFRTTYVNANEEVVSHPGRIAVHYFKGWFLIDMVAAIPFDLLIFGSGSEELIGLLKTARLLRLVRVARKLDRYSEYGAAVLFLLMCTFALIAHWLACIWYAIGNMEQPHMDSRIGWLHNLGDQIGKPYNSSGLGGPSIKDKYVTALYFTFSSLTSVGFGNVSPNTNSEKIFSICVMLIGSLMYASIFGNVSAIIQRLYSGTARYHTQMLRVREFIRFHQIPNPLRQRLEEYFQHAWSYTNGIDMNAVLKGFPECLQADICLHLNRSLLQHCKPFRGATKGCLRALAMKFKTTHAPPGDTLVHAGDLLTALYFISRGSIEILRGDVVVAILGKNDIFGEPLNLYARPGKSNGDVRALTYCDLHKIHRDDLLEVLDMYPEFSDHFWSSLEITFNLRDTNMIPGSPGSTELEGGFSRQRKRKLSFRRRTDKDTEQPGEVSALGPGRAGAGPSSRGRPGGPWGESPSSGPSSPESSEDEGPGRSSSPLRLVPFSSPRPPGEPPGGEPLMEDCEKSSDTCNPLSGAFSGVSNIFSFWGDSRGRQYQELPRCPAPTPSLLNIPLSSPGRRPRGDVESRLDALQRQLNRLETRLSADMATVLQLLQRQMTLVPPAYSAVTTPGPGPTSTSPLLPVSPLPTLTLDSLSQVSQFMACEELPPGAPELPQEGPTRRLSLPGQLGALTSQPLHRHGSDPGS
Experiment: not given
Details: not given
`CCC(CC)COc1c(C(N)=O)cnc2ccc(-c3cccnc3)cc12` showed an IC50 of 2.1 µM.
Still for that read-out and setting: the same measure for `C[C@H](Nc1c(C(N)=O)cnc2ccc(-c3cccnc3)cc12)c1ccn(C)n1`: 11 µM.
On to `NC(=O)c1cnc2ccc(-c3cccnc3)c(F)c2c1NC1CCOCC1`, for which the IC50 was 13 µM.
`CCC(CC)CNc1c(C(N)=O)cnc2ccc(-c3ccc(CS(C)(=O)=O)cc3)cc12`: the IC50 was 2.1 µM.

Tested on in another series: not listed separately
Briefly: in vitro. The note with it: human, hepatocytes.
`CCC(CC)COc1c(C(N)=O)cnc2ccc(-c3cccnc3)cc12`: the hepatocyte CLint at 1.5 h worked out at 42 µL/min/1e6 cells.
Turning to `C[C@H](Nc1c(C(N)=O)cnc2ccc(-c3cccnc3)cc12)c1ccn(C)n1`, the hepatocyte CLint at 1.5 h was 10 µL/min/1e6 cells.
Turning to `NC(=O)c1cnc2ccc(-c3cccnc3)c(F)c2c1NC1CCOCC1`, the hepatocyte CLint at 1.5 h is under 3 µL/min/1e6 cells.
`CCC(CC)CNc1c(C(N)=O)cnc2ccc(-c3ccc(CS(C)(=O)=O)cc3)cc12`: the hepatocyte CLint at 1.5 h turned out to be 23 µL/min/1e6 cells.

Tested on in the next series: not listed separately
The series is described as follows: in vitro. The note with it: rat, hepatocytes.
`CCC(CC)COc1c(C(N)=O)cnc2ccc(-c3cccnc3)cc12` came in with a hepatocyte CLint at 1.5 h of 260 µL/min/1e6 cells.
Consider `C[C@H](Nc1c(C(N)=O)cnc2ccc(-c3cccnc3)cc12)c1ccn(C)n1`, for which the hepatocyte CLint at 1.5 h was 31 µL/min/1e6 cells.
In turn, `NC(=O)c1cnc2ccc(-c3cccnc3)c(F)c2c1NC1CCOCC1` showed a hepatocyte CLint at 1.5 h of 11 µL/min/1e6 cells.
`CCC(CC)CNc1c(C(N)=O)cnc2ccc(-c3ccc(CS(C)(=O)=O)cc3)cc12`: the hepatocyte CLint at 1.5 h amounted to 210 µL/min/1e6 cells. Against the preceding molecule, the hepatocyte CLint at 1.5 h is about 19-fold higher.

Tested on in a further series: not listed separately
The series is described as follows: physchem. The note with it: octanol/buffer, pH 7.4.
As to `CCC(CC)COc1c(C(N)=O)cnc2ccc(-c3cccnc3)cc12`, the logD was over 4.3.
The molecule `C[C@H](Nc1c(C(N)=O)cnc2ccc(-c3cccnc3)cc12)c1ccn(C)n1` displayed a logD of 2.5.
On to `NC(=O)c1cnc2ccc(-c3cccnc3)c(F)c2c1NC1CCOCC1`, for which the logD turned out to be 1.5.
The same measure, in the same setting: next, `CCC(CC)CNc1c(C(N)=O)cnc2ccc(-c3ccc(CS(C)(=O)=O)cc3)cc12`: 3.5.

These data come from ChEMBL document CHEMBL4477207, “Discovery of Novel 3-Quinoline Carboxamides as Potent, Selective, and Orally Bioavailable Inhibitors of Ataxia Telangiectasia Mutated (ATM) Kinase” (J Med Chem, 2016).
